Legend:
Assay in all cases: relative viability (nuclei count vs DMSO), 5 days (fraction); higher = more cells survive
GW-2580 + Olaparib = compound: COC1=CC=C(C=C1)COC2=C(C=C(C=C2)CC3=CN=C(N=C3N)N)OC [GW-2580] + O=C(c1cc(Cc2n[nH]c(=O)c3ccccc23)ccc1F)N1CCN(C(=O)C2CC2)CC1 [Olaparib] (partner 8 µM)
Outline: (§1)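 Relative viability was taken as the ratio of nuclei in treated wells to nuclei in vehicle wells. Lung cancer cell lines in 1536-well plates received compounds by pin tool one day after seeding, either one drug alone or a fixed anchor-drug dose plus five library-drug doses (not always all listed) in √10 steps. Nuclei were counted on 4× images after 5 days of treatment, and values are medians of duplicate plates.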

Fedratinib + Tozasertib = compound: Cc1cnc(Nc2ccc(OCCN3CCCC3)cc2)nc1Nc1cccc(S(=O)(=O)NC(C)(C)C)c1 [Fedratinib] + Cc1cc(Nc2cc(N3CCN(C)CC3)nc(Sc3ccc(NC(=O)C4CC4)cc3)n2)n[nH]1 [Tozasertib] (partner 0.1 µM)
Outline: as §1

GW-2580 + Alpelisib = compound: COC1=CC=C(C=C1)COC2=C(C=C(C=C2)CC3=CN=C(N=C3N)N)OC [GW-2580] + Cc1nc(NC(=O)N2CCC[C@H]2C(N)=O)sc1-c1ccnc(C(C)(C)C(F)(F)F)c1 [Alpelisib] (partner 2 µM)
Outline: as §1

Fedratinib + Bortezomib = compound: Cc1cnc(Nc2ccc(OCCN3CCCC3)cc2)nc1Nc1cccc(S(=O)(=O)NC(C)(C)C)c1 [Fedratinib] + CC(C)C[C@H](NC(=O)[C@H](Cc1ccccc1)NC(=O)c1cnccn1)B(O)O [Bortezomib] (partner 0.002 µM)
Outline: as §1

Fedratinib + Linsitinib = compound: Cc1cnc(Nc2ccc(OCCN3CCCC3)cc2)nc1Nc1cccc(S(=O)(=O)NC(C)(C)C)c1 [Fedratinib] + C[C@]1(O)C[C@@H](c2nc(-c3ccc4ccc(-c5ccccc5)nc4c3)c3c(N)nccn32)C1 [Linsitinib] (partner 1 µM)
Outline: as §1

Cell Line: NCI-H522
- relative viability (GW-2580 + Olaparib; first compound 0.08 µM): 0.623
- relative viability (GW-2580 + Olaparib; first compound 0.8 µM): 0.608
- relative viability (GW-2580 + Olaparib; first compound 2.53 µM): 0.611
- relative viability (GW-2580 + Olaparib; first compound 8 µM): 0.602
- relative viability (Fedratinib + Tozasertib; first compound 0.1 µM): 0.527
- relative viability (Fedratinib + Tozasertib; first compound 0.3162 µM): 0.514
- relative viability (Fedratinib + Tozasertib; first compound 1 µM): 0.573

Cell Line: NCI-H838
- relative viability (GW-2580 + Alpelisib; first compound 0.08 µM): 1.01
- relative viability (GW-2580 + Alpelisib; first compound 0.8 µM): 1.06
- relative viability (GW-2580 + Alpelisib; first compound 2.53 µM): 1.15
- relative viability (GW-2580 + Alpelisib; first compound 8 µM): 1.07
- relative viability (GW-2580 + Olaparib; first compound 0.08 µM): 0.906
- relative viability (GW-2580 + Olaparib; first compound 0.8 µM): 0.938
- relative viability (GW-2580 + Olaparib; first compound 2.53 µM): 0.838
- relative viability (GW-2580 + Olaparib; first compound 8 µM): 0.94
- relative viability (Fedratinib + Bortezomib; first compound 0.1 µM): 0.588
- relative viability (Fedratinib + Bortezomib; first compound 0.3162 µM): 0.808
- relative viability (Fedratinib + Bortezomib; first compound 1 µM): 0.208
- relative viability (Fedratinib + Tozasertib; first compound 0.1 µM): 0.248
- relative viability (Fedratinib + Tozasertib; first compound 0.3162 µM): 0.271
- relative viability (Fedratinib + Tozasertib; first compound 1 µM): 0.21
- relative viability (Fedratinib + Linsitinib; first compound 0.1 µM): 1.01
- relative viability (Fedratinib + Linsitinib; first compound 0.3162 µM): 1.05
- relative viability (Fedratinib + Linsitinib; first compound 1 µM): 0.984

Cell Line: SW 900
- relative viability (GW-2580 + Olaparib; first compound 0.08 µM): 0.864
- relative viability (GW-2580 + Olaparib; first compound 0.8 µM): 1.03
- relative viability (GW-2580 + Olaparib; first compound 2.53 µM): 0.994
- relative viability (GW-2580 + Olaparib; first compound 8 µM): 0.747
- relative viability (Fedratinib + Tozasertib; first compound 0.1 µM): 0.358
- relative viability (Fedratinib + Tozasertib; first compound 0.3162 µM): 0.502
- relative viability (Fedratinib + Tozasertib; first compound 1 µM): 0.434

Cell Line: A549
- relative viability (GW-2580 + Alpelisib; first compound 0.08 µM): 0.723
- relative viability (GW-2580 + Alpelisib; first compound 0.8 µM): 0.688
- relative viability (GW-2580 + Alpelisib; first compound 2.53 µM): 0.721
- relative viability (GW-2580 + Alpelisib; first compound 8 µM): 0.764
- relative viability (GW-2580 + Olaparib; first compound 0.08 µM): 0.396
- relative viability (GW-2580 + Olaparib; first compound 0.8 µM): 0.527
- relative viability (GW-2580 + Olaparib; first compound 2.53 µM): 0.267
- relative viability (GW-2580 + Olaparib; first compound 8 µM): 0.301
- relative viability (Fedratinib + Linsitinib; first compound 0.1 µM): 0.56
- relative viability (Fedratinib + Linsitinib; first compound 0.3162 µM): 0.539
- relative viability (Fedratinib + Linsitinib; first compound 1 µM): 0.601

Cell Line: A-427
- relative viability (GW-2580 + Alpelisib; first compound 0.08 µM): 1.08
- relative viability (GW-2580 + Alpelisib; first compound 0.8 µM): 1.12
- relative viability (GW-2580 + Alpelisib; first compound 2.53 µM): 1.02
- relative viability (GW-2580 + Alpelisib; first compound 8 µM): 1.09
- relative viability (GW-2580 + Olaparib; first compound 0.08 µM): 0.76
- relative viability (GW-2580 + Olaparib; first compound 0.8 µM): 0.711
- relative viability (GW-2580 + Olaparib; first compound 2.53 µM): 0.756
- relative viability (GW-2580 + Olaparib; first compound 8 µM): 0.737
- relative viability (Fedratinib + Bortezomib; first compound 0.1 µM): 0.95
- relative viability (Fedratinib + Bortezomib; first compound 0.3162 µM): 0.889
- relative viability (Fedratinib + Bortezomib; first compound 1 µM): 0.558
- relative viability (Fedratinib + Tozasertib; first compound 0.1 µM): 0.183
- relative viability (Fedratinib + Tozasertib; first compound 0.3162 µM): 0.194
- relative viability (Fedratinib + Tozasertib; first compound 1 µM): 0.16
- relative viability (Fedratinib + Linsitinib; first compound 0.1 µM): 1.13
- relative viability (Fedratinib + Linsitinib; first compound 0.3162 µM): 1.05
- relative viability (Fedratinib + Linsitinib; first compound 1 µM): 1.11

Cell Line: NCI-H1792
- relative viability (GW-2580 + Alpelisib; first compound 0.08 µM): 0.552
- relative viability (GW-2580 + Alpelisib; first compound 0.8 µM): 0.809
- relative viability (GW-2580 + Alpelisib; first compound 2.53 µM): 0.288
- relative viability (GW-2580 + Alpelisib; first compound 8 µM): 0.907
- relative viability (GW-2580 + Olaparib; first compound 0.08 µM): 0.596
- relative viability (GW-2580 + Olaparib; first compound 0.8 µM): 0.929
- relative viability (GW-2580 + Olaparib; first compound 2.53 µM): 0.255
- relative viability (GW-2580 + Olaparib; first compound 8 µM): 0.44
- relative viability (Fedratinib + Bortezomib; first compound 0.1 µM): 1.14
- relative viability (Fedratinib + Bortezomib; first compound 0.3162 µM): 0.994
- relative viability (Fedratinib + Bortezomib; first compound 1 µM): 0.887
- relative viability (Fedratinib + Linsitinib; first compound 0.1 µM): 0.611
- relative viability (Fedratinib + Linsitinib; first compound 0.3162 µM): 0.547
- relative viability (Fedratinib + Linsitinib; first compound 1 µM): 0.542

Cell Line: LCLC-97TM1
- relative viability (GW-2580 + Alpelisib; first compound 0.08 µM): 0.233
- relative viability (GW-2580 + Alpelisib; first compound 2.53 µM): 0.189
- relative viability (GW-2580 + Alpelisib; first compound 8 µM): 0.226
- relative viability (GW-2580 + Olaparib; first compound 0.08 µM): 0.379
- relative viability (GW-2580 + Olaparib; first compound 0.8 µM): 0.579
- relative viability (GW-2580 + Olaparib; first compound 2.53 µM): 0.313
- relative viability (GW-2580 + Olaparib; first compound 8 µM): 0.428
- relative viability (Fedratinib + Bortezomib; first compound 0.1 µM): 0.636
- relative viability (Fedratinib + Bortezomib; first compound 0.3162 µM): 0.527
- relative viability (Fedratinib + Bortezomib; first compound 1 µM): 0.228
- relative viability (Fedratinib + Tozasertib; first compound 0.1 µM): 0.175
- relative viability (Fedratinib + Tozasertib; first compound 0.3162 µM): 0.213
- relative viability (Fedratinib + Tozasertib; first compound 1 µM): 0.19
- relative viability (Fedratinib + Linsitinib; first compound 0.1 µM): 0.151
- relative viability (Fedratinib + Linsitinib; first compound 0.3162 µM): 0.192
- relative viability (Fedratinib + Linsitinib; first compound 1 µM): 0.203

Cell Line: NCI-H1703
- relative viability (GW-2580 + Alpelisib; first compound 0.08 µM): 0.308
- relative viability (GW-2580 + Alpelisib; first compound 0.8 µM): 0.334
- relative viability (GW-2580 + Alpelisib; first compound 2.53 µM): 0.323
- relative viability (GW-2580 + Alpelisib; first compound 8 µM): 0.331
- relative viability (GW-2580 + Olaparib; first compound 0.08 µM): 0.418
- relative viability (GW-2580 + Olaparib; first compound 0.8 µM): 0.43
- relative viability (GW-2580 + Olaparib; first compound 2.53 µM): 0.412
- relative viability (GW-2580 + Olaparib; first compound 8 µM): 0.363
- relative viability (Fedratinib + Bortezomib; first compound 0.1 µM): 0.244
- relative viability (Fedratinib + Bortezomib; first compound 0.3162 µM): 0.341
- relative viability (Fedratinib + Bortezomib; first compound 1 µM): 0.24
- relative viability (Fedratinib + Linsitinib; first compound 0.3162 µM): 0.98
- relative viability (Fedratinib + Linsitinib; first compound 1 µM): 0.615

Cell Line: LCLC-103H
- relative viability (GW-2580 + Alpelisib; first compound 0.08 µM): 0.928
- relative viability (GW-2580 + Alpelisib; first compound 0.8 µM): 1.11
- relative viability (GW-2580 + Alpelisib; first compound 2.53 µM): 0.961
- relative viability (GW-2580 + Alpelisib; first compound 8 µM): 0.954
- relative viability (GW-2580 + Olaparib; first compound 0.08 µM): 0.799
- relative viability (GW-2580 + Olaparib; first compound 0.8 µM): 0.895
- relative viability (GW-2580 + Olaparib; first compound 2.53 µM): 0.733
- relative viability (GW-2580 + Olaparib; first compound 8 µM): 0.736
- relative viability (Fedratinib + Bortezomib; first compound 0.1 µM): 0.801
- relative viability (Fedratinib + Bortezomib; first compound 0.3162 µM): 0.997
- relative viability (Fedratinib + Bortezomib; first compound 1 µM): 0.897
- relative viability (Fedratinib + Tozasertib; first compound 0.1 µM): 0.304
- relative viability (Fedratinib + Tozasertib; first compound 0.3162 µM): 0.524
- relative viability (Fedratinib + Tozasertib; first compound 1 µM): 0.381
- relative viability (Fedratinib + Linsitinib; first compound 0.1 µM): 1.19
- relative viability (Fedratinib + Linsitinib; first compound 0.3162 µM): 1.1
- relative viability (Fedratinib + Linsitinib; first compound 1 µM): 0.966

Cell Line: PC-3 [JPC-3]
- relative viability (GW-2580 + Alpelisib; first compound 0.08 µM): 1.05
- relative viability (GW-2580 + Alpelisib; first compound 0.8 µM): 1.09
- relative viability (GW-2580 + Alpelisib; first compound 2.53 µM): 0.998
- relative viability (GW-2580 + Alpelisib; first compound 8 µM): 1.01
- relative viability (GW-2580 + Olaparib; first compound 0.08 µM): 1.12
- relative viability (GW-2580 + Olaparib; first compound 0.8 µM): 1.26
- relative viability (GW-2580 + Olaparib; first compound 2.53 µM): 1.03
- relative viability (GW-2580 + Olaparib; first compound 8 µM): 1.15
- relative viability (Fedratinib + Bortezomib; first compound 0.1 µM): 0.796
- relative viability (Fedratinib + Bortezomib; first compound 0.3162 µM): 0.781
- relative viability (Fedratinib + Bortezomib; first compound 1 µM): 0.869
- relative viability (Fedratinib + Tozasertib; first compound 0.1 µM): 0.833
- relative viability (Fedratinib + Tozasertib; first compound 0.3162 µM): 0.894
- relative viability (Fedratinib + Tozasertib; first compound 1 µM): 0.864
- relative viability (Fedratinib + Linsitinib; first compound 0.1 µM): 0.924
- relative viability (Fedratinib + Linsitinib; first compound 0.3162 µM): 0.932
- relative viability (Fedratinib + Linsitinib; first compound 1 µM): 0.951

Cell Line: BEN
- relative viability (GW-2580 + Alpelisib; first compound 0.08 µM): 0.996
- relative viability (GW-2580 + Alpelisib; first compound 0.8 µM): 1.07
- relative viability (GW-2580 + Alpelisib; first compound 2.53 µM): 1.04
- relative viability (GW-2580 + Alpelisib; first compound 8 µM): 1.03
- relative viability (GW-2580 + Olaparib; first compound 0.08 µM): 0.877
- relative viability (GW-2580 + Olaparib; first compound 0.8 µM): 1.12
- relative viability (GW-2580 + Olaparib; first compound 2.53 µM): 1.03
- relative viability (GW-2580 + Olaparib; first compound 8 µM): 0.962
- relative viability (Fedratinib + Bortezomib; first compound 0.1 µM): 0.673
- relative viability (Fedratinib + Bortezomib; first compound 0.3162 µM): 0.607
- relative viability (Fedratinib + Bortezomib; first compound 1 µM): 0.559
- relative viability (Fedratinib + Tozasertib; first compound 0.1 µM): 0.507
- relative viability (Fedratinib + Tozasertib; first compound 0.3162 µM): 0.464
- relative viability (Fedratinib + Tozasertib; first compound 1 µM): 0.45
- relative viability (Fedratinib + Linsitinib; first compound 0.1 µM): 0.779
- relative viability (Fedratinib + Linsitinib; first compound 0.3162 µM): 0.914
- relative viability (Fedratinib + Linsitinib; first compound 1 µM): 0.852
